Literature values as cited in paper PMC5693832 (Ophthalmology and Therapy, 2017).

What was measured:
[1] = tested on: platelets; settings: humans
[2] = tested on: IOP in healthy Japanese subjects; settings: 0.024% once daily for 14 days
[3] = tested on: IOP in Japanese subjects with POAG or OHT; settings: 0.024% every evening
[4] = tested on: IOP over a 24-h diurnal time period; settings: for IOP reduction over the 24 h period, in words: 24-h diurnal period
[5] = tested on: diurnal IOP in POAG or OHT patients; settings: 0.006% to 0.040%, 28 days
[6] = tested on: IOP; settings: 0.024%, summary of the clinical trials

Structure (SMILES)	NO release after oral administration [1]	most common adverse events [2]	severity of adverse events [2]	IOP (SD) at 52 weeks [3]	IOP reduction by 52 weeks from baseline ([3]; baseline 19.6 (2.9) mmHg)	IOP reduction over the 24 h period, in words [4]	post treatment mean IOP (SD), nighttime ([4]; nighttime, baseline 25.7 (3.8) mmHg)	adverse events (pupil dilation, blurred vision) [5]	efficacy (change from baseline mean diurnal IOP), dose relation [5]	additional IOP reduction versus latanoprost and timolol monotherapy [6]
CC(=O)Oc1ccccc1C(=O)Oc1cccc(CO[N+](=O)[O-])c1 [NCX 4016, 2-(acetyloxy)benzoic acid-3-[(nitrooxy)methyl]phenyl ester]	capable of releasing NO									
O=C(CCC/C=C\C[C@@H]1[C@@H](CC[C@@H](O)CCc2ccccc2)[C@H](O)C[C@@H]1O)OCCCCO[N+](=O)[O-] [latanoprostene bunod]		punctate keratitis and conjunctival hyperemia	mild	14.4 (2.7) mmHg	26%	sustained IOP reduction during the 24 h period	23.2 (3.4) mmHg	neither pupil dilation nor blurred vision were reported as adverse events	dose-dependent	1–2 mmHg
CC(C)(C)NC[C@H](O)COc1nsnc1N1CCOCC1 [timolol]						primarily effective during the daytime				
